The values below are quoted from earlier work in patent US4242298A, “Polysaccharide ester membrane clearing process” (priority 1979, dated 1980).

Data set [1] has as its system rat. To be noted: oral.
For data set [2], the system named is rat. The conditions noted are these: inhalation.
Data set [3] deals with rats. The conditions noted are these: 2000 ppm, 8 hours.
Data set [4] has as its system rats. The conditions noted are these: 6 hours.
For data set [5], the system named is rats. The conditions noted are these: number of hours not given.

Where two headings read alike, the source gives them in different places.

In general, LD50 refers to the dose at which mortality reaches 50%. In the case of `CCOCCO` [2-ethoxyethanol], the LD50 in the data set with rat [1] was 3000 mg/kg. Moreover, in the data set on rat [2] (4H), the LCLo is on record as 4000 ppm.

On to `CCOCCOC(C)=O` [2-ethoxyethyl acetate], for which the LD50 with rat [1] is on record as 5100 mg/kg. Besides, the LCLo with rat [2] (8H) is recorded as 1500 ppm.

As to `CC(=O)O` [Acetic Acid, reference compound], in the data set on rat [2] (4H), the LCLo is reported as 1600 ppm.

`O=C1CCCCC1` [Cyclohexanone, reference compound]: the LD50 in the data set on rat [1] was 1620 mg/kg. Also, the LCLo with rat [2] (4H) is reported as 2000 ppm.

Consider `CC(=O)CO` [acetol], for which the LD50 in the data set on rat [1] is on record as 2200 mg/kg. For the same compound, the lethality on exposure result in the data set with rats [3] is listed as “nonlethal”.

As for `CCOC(=O)CC(C)=O` [ethyl acetoacetate], in the data set with rats [4] (1129 ppm (calculated)), the “animal's growth, following exposure” value is “normal” and the symptoms on exposure entry is on record as “no symptoms”.

Consider `COC(=O)CC(C)=O` [methyl acetoacetate], for which the LD50 in the data set with rat [1] is on record as 3000 mg/kg. In the data set with rats [4] (1370 ppm (calculated)), the “animal's growth, following exposure” value is “normal” and the symptoms on exposure result was “no symptoms”. In addition, the “lethality on exposure to concentrated vapor” value with rats [5] is recorded as “nonlethal”.
